Measured values published in patent publication US6043373A, “Heterocycle-fused thiazole derivatives” (Yungjin Pharmaceutical Co., Ltd., priority 1995, dated 2000).

Experiments:
H^+ /K^+ ATPase = target: T1, H^+ /K^+ ATPase (Oryctolagus cuniculus, UniProt P27112); assay: Inhibition of H^+ /K^+ ATPase (vesicles from gastric mucose membrane of rabbit); type: biochemical; details: pH 7.4, 37° C., 30 minutes preincubation, 15 minutes incubation; read-out: Enzyme Inhibition (IC50)
T1 construct: from tissue; host or cells: rabbit gastric mucosa, membrane vesicles (differential and Ficoll density gradient centrifugation)
Experimental: Inhibition of H^+ /K^+ ATPase, a proton carrying enzyme, was measured by following the procedure of Saccomani et al. [Biochim. Biophy. Acta., 465, 311-330 (1977)]. Thus, a homogenate of the gastric mucose membrane of rabbit was used to prepare vesicles containing H^+ /K^+ ATPase by employing differential centrifugation and discontinuous density gradient centrifugation in Ficoll. The vesicles containing the enzyme were preincubated in a solution (0.5 ml) containing 1×10^-4 M, 1×10^-5 M, 1×10^-6 M, or 1×10^-7 M of the inventive compound (Example 21) and 5 mM of imidazole buffer (pH 7.4) at a temperature of about 37° C. for about 30 minutes. omeprazole was used as a control. A solution containing 2 mM of magnesium chloride, 40 mM of imidazole buffer (pH 7.4), 10 mM of potassium chloride and 10 mM of ATP was added to the mixture. The resulting mixture was incubated at 37° C. for 15 minutes and the reaction was terminated by adding 1 ml of ice-cold 22% solution of trichloroacetic acid. Enzyme activity was calculated by measuring the separated inorganic phosphate by following the method of Fiske and Subbarow [J. Biol. Chem., 66, 375-440 (1925)].

Gastric Secretion = assay: Inhibition of gastric secretion (Shay pylorus ligation); type: in vivo, male Sprague-Dawley rats; details: rat, intraduodenal
Experimental: Inhibition of gastric secretion was measured by following the procedure of Shay ligation (Gastroenterology, 1954, 26, 903). Thus, male Sprague-Dawleyrats weighing 180-200 g were starved for 24 hours and their pylorus were ligated. Then, the inventive compounds (Examples 1, 13 and 17) or omeprazole as a positive control was administered into duodenum. Four hours later, the stomach was removed, and the acidity and amount of gastric juice were measured. By comparing the measured values with the acidity and amount of the gastric juice of the stomach of the reference group to which no test compound was administered, the inhibition of gastric secretion was calculated.

Ethanol-Induced Lesions = assay: Inhibition of Ethanol-Induced Lesions; type: in vivo, male Sprague-Dawley rats; details: rat, oral, 30 minutes before absolute ethanol (5 ml/kg); read-out: Anti-ulcer activity (ED50), Ethanol
Experimental: Inhibition activity of the inventive compound on the ethanol-induced ulcer was measured by using male sprague-Dawley rats weighing 180-200 g. Thus, rats were starved for 24 hours, and the inventive compound (Examples 1 and 17) or omeprazole as a positive control was orally administered. Thirty minutes later, absolute ethanol (5 ml/kg was orally administered. 1.5 hours later, the stomach was removed, and the degree of the wound of the stomach was measured. By comparing the measured values with the degree of the lesion of the stomach the reference group to which no test compound was administered, the effective dose (ED50) of the test compounds which inhibit the lesion by 50% were calculated and are shown in Table 3.

[1] = tested on: Indomethacin-Induced Lesions; assay: Inhibition of Indomethacin-Induced Lesions; type: in vivo, male Sprague-Dawley rats; details: rat, oral, before 35 mg/kg indomethacin s.c.; read-out: Anti-ulcer activity (ED50), Indomethacin
Experimental: Inhibition activities of the inventive compounds on the indome][…]-induced lesions was measured by using male Sprague-Dawley rats. Thus, rats were starved for 48 hours and prohibited from being supplied with water for 2 hours, and 35 mg/kg of indomethacin (Sigma Co.) as a causative of gastric lesions was subcutaneously administered. Before Indomethacine treatment, the inventive compounds (Examples 1 and 17) or omeprazole as a positive control was orally administered, and the inhibitions of lesions by the action of the test compounds were observed.

[2] = tested on: Acetic Acid-Induced Ulcer; assay: Inhibition of Acetic Acid-Induced Ulcer (healing); type: in vivo, male Sprague-Dawley rats; details: rat, oral, 30 mg/kg, for 10 days
Experimental: Inhibition activity of the inventive compound on-the acetic acid-induced ulcer was evaluated by using male Sprague-Dawley rats. Thus, rats were starved for 5 hours prior to carrying out the experiment.
20 Microliter of 30% acetic acid was injected into the submucosal layer of the stomach using a microsyringe to induce a circular ulcer on the stomach. Various doses of the inventive compounds (Examples 1 and 17) or omeprazole as a positive control were orally administered for 10 days, and the healing of ulcer by the action of the test compounds were observed. The percentages of the healing of the ulcer were calculated by comparing them with that of reference group.

Stress-Induced Ulcer = assay: Inhibition of Stress-Induced Ulcer (water immersion); type: in vivo, male Sprague-Dawley rats; details: rat, oral, 30 minutes prior to immersion in water; read-out: Anti-ulcer activity (ED50), Stress
Experimental: Inhibition activity of the inventive compound on the stress-induced ulcer was evaluated by using male Sprague-Dawley rats. Thus, rats were starved for 24 hours prior to carrying out the experiment. Stress is an important factor for causing gastric lesions, and was applied to rats by immersing them in water. Thirty minutes prior to immersing rats into water, the inventive compounds (Examples 1 and 17) or omeprazole as a positive control was orally administered, and the inhibitions of ulcer by the action of the test compounds were observed.

Mepirizole-Induced Ulcer = assay: Inhibition of Mepirizole-Induced Ulcer (duodenum); type: in vivo, male Sprague-Dawley rats; details: rat, oral, 30 minutes before mepirizole (250 mg/kg); read-out: Anti-ulcer activity (ED50), Mepirizole
Experimental: Inhibition activity of the inventive compounds on the mepirizole-induced ulcers was measured by using male Spraque-Dawley rats weighing 200-230 g. Thus, rats were not starved, and the inventive compounds (Examples 1 and 17) or omeprazole as a positive control was orally administered. Thirty minutes later, mepirizole suspended in 1% CMC (250 mg/kg) was orally administered. […], the duodena were removed. The degree of the ulcer thereof was measured. By comparing the measured values with the degree of the ulcer of the duodena of the reference group to which no test compound was administered, the effective deses (ED50) of the test compounds which inhibit the ulcer by 50% were calculated and are shown in Table 3.

T1 sequence (P27112 2-1035 limits assumed): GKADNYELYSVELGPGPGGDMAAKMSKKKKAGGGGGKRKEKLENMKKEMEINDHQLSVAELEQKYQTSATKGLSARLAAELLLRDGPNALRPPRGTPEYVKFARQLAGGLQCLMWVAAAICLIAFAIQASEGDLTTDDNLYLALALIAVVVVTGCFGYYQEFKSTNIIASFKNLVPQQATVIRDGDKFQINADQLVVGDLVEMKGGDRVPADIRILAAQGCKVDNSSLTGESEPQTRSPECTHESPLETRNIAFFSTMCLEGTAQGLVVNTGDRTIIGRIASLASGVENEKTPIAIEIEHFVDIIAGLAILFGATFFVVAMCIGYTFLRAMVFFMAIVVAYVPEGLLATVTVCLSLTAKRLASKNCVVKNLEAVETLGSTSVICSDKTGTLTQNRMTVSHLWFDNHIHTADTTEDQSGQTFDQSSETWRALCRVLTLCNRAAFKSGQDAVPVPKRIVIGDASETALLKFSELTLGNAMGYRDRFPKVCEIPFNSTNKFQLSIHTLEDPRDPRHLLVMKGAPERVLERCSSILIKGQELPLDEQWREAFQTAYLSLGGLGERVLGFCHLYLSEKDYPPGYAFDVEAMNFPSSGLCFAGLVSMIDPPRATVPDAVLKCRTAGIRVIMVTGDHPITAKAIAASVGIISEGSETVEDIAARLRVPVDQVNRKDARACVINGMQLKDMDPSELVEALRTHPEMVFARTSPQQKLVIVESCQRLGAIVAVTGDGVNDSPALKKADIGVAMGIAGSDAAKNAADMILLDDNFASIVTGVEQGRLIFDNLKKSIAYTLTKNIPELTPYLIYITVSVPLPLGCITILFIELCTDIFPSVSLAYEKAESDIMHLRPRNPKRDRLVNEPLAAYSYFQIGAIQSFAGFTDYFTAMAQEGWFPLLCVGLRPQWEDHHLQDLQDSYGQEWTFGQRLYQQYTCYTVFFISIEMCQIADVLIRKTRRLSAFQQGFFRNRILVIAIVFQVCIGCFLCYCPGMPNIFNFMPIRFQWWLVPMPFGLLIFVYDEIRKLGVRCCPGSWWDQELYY
T1 sequence (P18597 whole entry partner): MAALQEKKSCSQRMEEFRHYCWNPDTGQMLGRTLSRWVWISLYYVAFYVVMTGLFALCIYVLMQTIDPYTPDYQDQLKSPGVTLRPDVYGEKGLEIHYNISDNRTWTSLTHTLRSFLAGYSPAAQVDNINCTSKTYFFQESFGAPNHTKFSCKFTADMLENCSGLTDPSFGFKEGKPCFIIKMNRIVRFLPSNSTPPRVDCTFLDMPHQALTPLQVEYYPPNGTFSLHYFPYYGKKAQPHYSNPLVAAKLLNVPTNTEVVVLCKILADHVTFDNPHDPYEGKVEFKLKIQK

Row | SMILES | IC50 (H^+ /K^+ ATPase) [µM] | Gastric juice Secretion Inhibition (percent) (Gastric Secretion; 25 mg/kg, 4 hours) [%] | ED50 (Ethanol-Induced Lesions) [mg/kg] | ED50 [1] [mg/kg] | Anti-ulcer activity, Acetic acid: Percentage of healing [2] [%] | ED50 (Stress-Induced Ulcer) [mg/kg] | ED50 (Gastric Secretion; 4 hours after pylorus ligation, read-out: Gastric juice Secretion Inhibition (ED50)) [mg/kg] | ED50 (Mepirizole-Induced Ulcer) [mg/kg]
1 | CNc1nc2c(s1)CCc1c-2sc2nc(-c3ccccc3)cn12 [Example 2] | 21.6 |  |  |  |  |  |  | 
2 | Br.Br.Nc1nc2c(s1)CCc1c-2sc2nc3ccccc3n12 [Example 13, 2-amino-4,5-dihydrobenzimidazo[2,1-b]thiazolo[5,4-g]benzothiazole dihydrobromide] | 200 | 34.0 |  |  |  |  |  | 
3 | Nc1nc2c(s1)CCc1nc3ccccn3c1-2 [Example 17, 2-amino-4,5-dihydropyrido[1,2-a]thiazolo [5,4-g]benzimidazole] | 49 |  | 2.91 | 4.68 | 31.59 | 17.6 | 15.4 | 18.7
4 | NC(N)=Nc1nc2c(s1)-c1nc(N)sc1CC2 [Example 18] | 100 |  |  |  |  |  |  | 
5 | COc1ccc2[nH]c([S+]([O-])Cc3ncc(C)c(OC)c3C)nc2c1 (stereo not shown) [Omeprazole, reference compound] |  |  | 17.1 | 1.2 | 27.1 | 4.4 |  | 2.8
